Test results reported in US12180215B2, “Substituted pyrrolo[3,4-d]imidazoles as JAK inhibitors” (HENAN MEDINNO PHARMACEUTICAL TECHNOLOGY CO., LTD., priority 2019, dated 2024).

What was measured:
TYK2 = target: T1, TYK2 (Homo sapiens, UniProt P29597); experiment: TYK2 kinase ADP-Glo assay (Example 60)
T1 sequence (P29597 871-1187 limits assumed): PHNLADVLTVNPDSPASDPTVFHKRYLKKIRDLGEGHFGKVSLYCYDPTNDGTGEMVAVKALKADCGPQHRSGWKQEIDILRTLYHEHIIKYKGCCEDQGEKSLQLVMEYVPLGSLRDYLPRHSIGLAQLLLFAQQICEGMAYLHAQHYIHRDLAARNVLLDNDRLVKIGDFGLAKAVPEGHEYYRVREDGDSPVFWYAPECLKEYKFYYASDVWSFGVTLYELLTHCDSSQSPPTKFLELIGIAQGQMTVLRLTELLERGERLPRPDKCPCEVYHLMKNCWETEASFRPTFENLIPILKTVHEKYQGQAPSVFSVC

JAK1 = JAK1 (Homo sapiens, UniProt P23458); experiment: JAK1 kinase ADP-Glo assay (Example 60)
Sequence of JAK1 (P23458 850-1154 limits assumed): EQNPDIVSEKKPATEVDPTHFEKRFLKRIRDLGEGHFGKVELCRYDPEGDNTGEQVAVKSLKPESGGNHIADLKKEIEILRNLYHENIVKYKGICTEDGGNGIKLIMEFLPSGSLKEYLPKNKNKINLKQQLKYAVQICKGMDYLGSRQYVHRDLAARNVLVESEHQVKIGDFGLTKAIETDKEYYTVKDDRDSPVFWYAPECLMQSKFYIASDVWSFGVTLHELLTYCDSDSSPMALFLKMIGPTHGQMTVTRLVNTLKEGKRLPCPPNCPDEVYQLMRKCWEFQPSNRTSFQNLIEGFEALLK

JAK2 = JAK2 (Homo sapiens, UniProt O60674); experiment: JAK2 kinase ADP-Glo assay (Example 60)
Sequence of JAK2 (O60674 826-1132 limits assumed): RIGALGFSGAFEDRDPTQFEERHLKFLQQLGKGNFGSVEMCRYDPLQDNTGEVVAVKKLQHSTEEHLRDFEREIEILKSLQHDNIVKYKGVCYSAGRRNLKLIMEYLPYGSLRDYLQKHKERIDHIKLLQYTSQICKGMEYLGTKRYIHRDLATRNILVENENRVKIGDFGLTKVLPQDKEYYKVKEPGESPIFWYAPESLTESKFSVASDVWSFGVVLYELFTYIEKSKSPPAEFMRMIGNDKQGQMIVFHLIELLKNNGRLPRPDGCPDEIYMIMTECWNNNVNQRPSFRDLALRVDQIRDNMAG

JAK3 = JAK3 (Homo sapiens, UniProt P52333); experiment: JAK3 kinase ADP-Glo assay (Example 60)
Sequence of JAK3 (P52333 795-1124 limits assumed): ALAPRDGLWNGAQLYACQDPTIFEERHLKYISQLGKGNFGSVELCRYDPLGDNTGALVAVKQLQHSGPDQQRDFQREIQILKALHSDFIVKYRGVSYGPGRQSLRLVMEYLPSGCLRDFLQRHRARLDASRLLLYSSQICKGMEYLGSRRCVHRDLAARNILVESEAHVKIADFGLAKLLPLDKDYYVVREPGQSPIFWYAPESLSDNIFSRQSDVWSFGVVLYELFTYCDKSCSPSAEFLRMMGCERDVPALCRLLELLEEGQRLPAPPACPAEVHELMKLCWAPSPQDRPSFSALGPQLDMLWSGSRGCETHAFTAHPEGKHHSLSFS

Compound: CCc1cc(O)c(F)cc1-c1ccc2c(-c3nc4c([nH]3)CN(C(=O)N3CCC(C#N)C3)C4)n[nH]c2c1 (stereo not drawn) [MDI-250, 1-(2-(6-(2-ethyl-5-fluoro-4-hydroxyphenyl)-1H-indazol-3-yl)-1,4,5,6-tetrahydropyrrolo[3,4-d]imidazol-5-carbonyl)pyrrolidin-3-nitrile]
- IC50 (TYK2): 0.993 nM
- IC50 (JAK1): 0.395 nM
- IC50 (JAK2): 0.974 nM
- IC50 (JAK3): 0.497 nM

Compound: CCC(=O)N1Cc2nc(-c3n[nH]c4cc(-c5cc(F)c(O)cc5CC)ccc34)[nH]c2C1 [MDI-227, 1-(2-(6-(2-ethyl-5-fluoro-4-hydroxyphenyl)-1H-indazol-3-yl)-4,6-dihydropyrrolo[3,4-d]imidazol-5-(1H)-yl)propan-1-one]
- IC50 (TYK2): 3.89 nM
- IC50 (JAK1): 0.224 nM
- IC50 (JAK2): 0.246 nM
- IC50 (JAK3): 0.441 nM

Compound: CCc1cc(O)c(F)cc1-c1ccc2c(-c3nc4c([nH]3)CN(C(=O)NCCO)C4)n[nH]c2c1 [MDI-248, 2-(6-(2-ethyl-5-fluoro-4-hydroxyphenyl)-1H-indazol-3-yl)-N-(2-hydroxylethyl)-4,6-dihydropyrrolo[3,4-d]imidazol-5(1H)-carboxamide]
- IC50 (TYK2): 0.578 nM
- IC50 (JAK1): 0.093 nM
- IC50 (JAK2): 0.56 nM
- IC50 (JAK3): 0.303 nM

Compound: CCc1cc(O)c(F)cc1-c1ccc2c(-c3nc4c([nH]3)CN(S(=O)(=O)C3CCCC3)C4)n[nH]c2c1 [MDI-220, 4-(3-(5-(cyclopentylsulfonyl)-1,4,5,6-tetrahydropyrrolo[3,4-d]imidazol-2-yl)-1H-indazol-6-yl)-5-ethyl-2-fluorophenol]
- IC50 (TYK2): 5.56 nM
- IC50 (JAK1): 2.02 nM
- IC50 (JAK2): 1.38 nM
- IC50 (JAK3): 3.15 nM

Compound: CCc1cc(O)c(F)cc1-c1ccc2c(-c3nc4c([nH]3)CN(C(=O)N3CCOCC3)C4)n[nH]c2c1 [MDI-234, (2-(6-(2-ethyl-5-fluoro-4-hydroxyphenyl)-1H-indazol-3-yl)-4,6-dihydropyrrolo[3,4-d]imidazol-5-(1H)-yl)(morpholino)ketone]
- IC50 (TYK2): 0.438 nM
- IC50 (JAK1): 0.206 nM
- IC50 (JAK2): 0.737 nM
- IC50 (JAK3): 0.375 nM

Compound: CCc1cc(O)c(F)cc1-c1ccc2c(-c3nc4c([nH]3)CN(C(=O)N3CC[C@H](O)C3)C4)n[nH]c2c1 [MDI-216, (S)-(2-(6-(2-ethyl-5-fluoro-4-hydroxyphenyl)-1H-indazol-3-yl)-4,6-dihydropyrrolo[3,4-d]imidazol-5-(1H)-yl)(3-hydroxylpyrrolidin-1-yl)ketone]
- IC50 (TYK2): 1.62 nM
- IC50 (JAK1): 0.134 nM
- IC50 (JAK2): 0.233 nM
- IC50 (JAK3): 0.247 nM

Compound: CCc1cc(O)c(F)cc1-c1ccc2c(-c3nc4c([nH]3)CN(Cc3cnn(C)c3)C4)n[nH]c2c1 [MDI-221, 5-ethyl-2-fluoro-4-(3-(5-((1-methyl-1H-pyrazol-4-yl)methyl)-1,4,5,6-tetrahydropyrrolo[3,4-d]imidazol-2-yl)-1H-indazol-6-yl)phenol]
- IC50 (TYK2): 7.6 nM
- IC50 (JAK1): 0.128 nM
- IC50 (JAK2): 0.363 nM
- IC50 (JAK3): 0.379 nM

Compound: CCc1cc(O)c(F)cc1-c1ccc2c(-c3nc4c([nH]3)CN(C(=O)N3CC[C@H](O)C3)C4)n[nH]c2n1 [MDI-255, (S)-(2-(6-(2-ethyl-5-fluoro-4-hydroxyphenyl)-1H-pyrazolo[3,4-b]pyridine-3-yl)-4,6-dihydropyrrolo[3,4-d]imidazol-5(1H)-yl)(3-hydroxylpyrrolidin-1-yl)ketone]
- IC50 (JAK1): 57.2 nM
- IC50 (JAK2): 37.4 nM

Compound: CCc1cc(O)c(F)cc1-c1ccc2c(-c3nc4c([nH]3)CN(S(=O)(=O)C3CC3)C4)n[nH]c2c1 [MDI-218, 4-(3-(5-(cyclopropanesulfonyl)-1,4,5,6-tetrahydropyrrolo[3,4-d]imidazol-2-yl)-1H-indazol-6-yl)-5-ethyl-2-fluorophenol]
- IC50 (TYK2): 1.75 nM
- IC50 (JAK1): 0.825 nM
- IC50 (JAK2): 0.614 nM
- IC50 (JAK3): 0.948 nM

Compound: CCc1cc(O)c(F)cc1-c1ccc2c(-c3nc4c([nH]3)CN(C(=O)OC)C4)n[nH]c2c1 [MDI-252, Methyl 2-(6-(2-ethyl-5-fluoro-4-hydroxyphenyl)-1H-indazol-3-yl)-4,6-dihydropyrrolo[3,4-d]imidazol-5(1H)-carboxylate]
- IC50 (TYK2): 22 nM
- IC50 (JAK1): 1.8 nM
- IC50 (JAK2): 2.6 nM
- IC50 (JAK3): 2.2 nM

Compound: CCc1cc(O)c(F)cc1-c1ccc2c(-c3nc4c([nH]3)CN(C(=O)C(C)C)C4)n[nH]c2c1 [MDI-228, 1-(2-(6-(2-ethyl-5-fluoro-4-hydroxyphenyl)-1H-indazol-3-yl)-4,6-dihydropyrrolo[3,4-d]imidazol-5-(1H)-yl)-2-methylpropan-1-one]
- IC50 (TYK2): 4.76 nM
- IC50 (JAK1): 0.398 nM
- IC50 (JAK2): 0.355 nM
- IC50 (JAK3): 0.565 nM

Compound: CCc1cc(O)c(F)cc1-c1cc(C)c2c(-c3nc4c([nH]3)CN(C(=O)C3CC3)C4)n[nH]c2c1 [MDI-239, cyclopropyl (2-(6-(2-ethyl-5-fluoro-4-hydroxyphenyl)-4-methyl-1H-indazol-3-yl)-4,6-dihydropyrrolo[3,4-d]imidazol-5(1H)-yl)ketone]
- IC50 (TYK2): 19.2 nM
- IC50 (JAK1): 1.15 nM
- IC50 (JAK2): 1.2 nM
- IC50 (JAK3): 4.94 nM

Compound: CCc1cc(O)c(F)cc1-c1ccc2c(-c3nc4c([nH]3)CN(CC3CCC3)C4)n[nH]c2c1 [MDI-210, 4-(3-(5-(cyclobutylmethyl)-1,4,5,6-tetrahydropyrrolo[3,4-d]imidazol-2-yl)-1H-indazol-6-yl)-5-ethyl-2-fluorophenol]
- IC50 (TYK2): 31.5 nM
- IC50 (JAK1): 0.347 nM
- IC50 (JAK2): 1.11 nM
- IC50 (JAK3): 0.979 nM

Compound: CCc1cc(O)c(F)cc1-c1ccc2c(-c3nc4c([nH]3)CN(C(=O)[C@H]3CCCN3)C4)n[nH]c2c1 [MDI-263, (R)-6-(2-ethyl-5-fluoro-4-hydroxyphenyl)-3-(5-prolyl-1,4,5,6-tetrahydropyrrolo[3,4-d]imidazol-2-yl)-1H-indazol]
- IC50 (TYK2): 0.717 nM
- IC50 (JAK1): 0.12 nM
- IC50 (JAK2): 0.717 nM
- IC50 (JAK3): 0.458 nM

Compound: CCc1cc(O)c(F)cc1-c1ccc2c(-c3nc4c([nH]3)CN(C(=O)N3CC5(CNC5)C3)C4)n[nH]c2c1 [MDI-261, (2-(6-(2-ethyl-5-fluoro-4-hydroxyphenyl)-1H-indazol-3-yl)-4,6-dihydropyrrolo[3,4-d]imidazol-5(1H)-yl)(2,6-diazaspiro[3.3]heptan-2-yl)ketone]
- IC50 (TYK2): 1.16 nM
- IC50 (JAK1): 0.154 nM
- IC50 (JAK2): 0.703 nM
- IC50 (JAK3): 0.473 nM

Compound: CCc1cc(O)c(F)cc1-c1ccc2c(-c3nc4c([nH]3)CN(C(=O)N3CCN(C)CC3)C4)n[nH]c2c1 [MDI-235, (2-(6-(2-ethyl-5-fluoro-4-hydroxyphenyl)-1H-indazol-3-yl)-4,6-dihydropyrrolo[3,4-d]imidazol-5-(1H)-yl)(4-methylpiperazin-1-yl)ketone]
- IC50 (TYK2): 0.142 nM
- IC50 (JAK1): 0.0395 nM
- IC50 (JAK2): 0.166 nM
- IC50 (JAK3): 0.183 nM

Compound: CCc1cc(O)c(F)cc1-c1cnc2c(-c3nc4c([nH]3)CN(C(=O)C3CC3)C4)n[nH]c2c1 [MDI-237, cyclopropyl (2-(6-(2-ethyl-5-fluoro-4-hydroxyphenyl)-1H-pyrazolo[4,3-b]pyridine-3-yl)-4,6-dihydropyrrolo[3,4-d]imidazol-5(1H)-yl)ketone]
- IC50 (TYK2): 9.68 nM
- IC50 (JAK1): 0.758 nM
- IC50 (JAK2): 0.588 nM
- IC50 (JAK3): 1.39 nM

Compound: CCc1cc(O)c(F)cc1-c1ccc2c(-c3nc4c([nH]3)CN(C3CCCC3)C4)n[nH]c2c1 [MDI-224, 4-(3-(5-cyclopentyl-1,4,5,6-tetrahydropyrrolo[3,4-d]imidazol-2-yl)-1H-indazol-6-yl)-5-ethyl-2-fluorophenol]
- IC50 (TYK2): 16.1 nM
- IC50 (JAK1): 0.248 nM
- IC50 (JAK2): 0.754 nM
- IC50 (JAK3): 2.01 nM

Compound: CCc1cc(O)c(F)cc1-c1ccc2c(-c3nc4c([nH]3)CN(C(=O)NCCC#N)C4)n[nH]c2c1 [MDI-258, N-(2-cyanoethyl)-2-(6-(2-ethyl-5-fluoro-4-hydroxyphenyl)-1H-indazol-3-yl)-4,6-dihydropyrrolo[3,4-d]imidazole-5(1H)-carboxamide]
- IC50 (TYK2): 6.27 nM
- IC50 (JAK1): 0.939 nM
- IC50 (JAK2): 3.31 nM
- IC50 (JAK3): 2.36 nM

Compound: CCc1cc(O)c(F)cc1-c1ccc2c(-c3nc4c([nH]3)CN(C3CCOCC3)C4)n[nH]c2c1 [MDI-225, 5-ethyl-2-fluoro-4-(3-(5-(tetrahydro-2H-pyran-4-yl)-1,4,5,6-tetrahydropyrrolo[3,4-d]imidazol-2-yl)-1H-indazol-6-yl)phenol]
- IC50 (TYK2): 3.5 nM
- IC50 (JAK1): 0.226 nM
- IC50 (JAK2): 0.39 nM
- IC50 (JAK3): 0.487 nM

Compound: CCc1cc(O)c(F)cc1-c1ccc2c(-c3nc4c([nH]3)CN(C(=O)NC)C4)n[nH]c2c1 [MDI-246, 2-(6-(2-ethyl-5-fluoro-4-hydroxyphenyl)-1H-indazol-3-yl)-N-methyl-4,6-dihydropyrrolo[3,4-d]imidazol-5-(1H)-carboxamide]
- IC50 (TYK2): 1.52 nM
- IC50 (JAK1): 0.241 nM
- IC50 (JAK2): 0.973 nM
- IC50 (JAK3): 0.709 nM

Compound: CCc1cc(O)c(F)cc1-c1ccc2c(-c3nc4c([nH]3)CN(C(=O)NC3CC3)C4)n[nH]c2c1 [MDI-259, N-cyclopropyl-2-(6-(2-ethyl-5-fluoro-4-hydroxyphenyl)-1H-indazol-3-yl)-4,6-dihydropyrrolo[3,4-d]imidazol-5(1H)-carboxamide]
- IC50 (TYK2): 2.94 nM
- IC50 (JAK1): 0.659 nM
- IC50 (JAK2): 1.3 nM
- IC50 (JAK3): 1.29 nM

Compound: CCc1cc(O)c(F)cc1-c1ccc2c(-c3nc4c([nH]3)CN(C(=O)NC3CCOC3)C4)n[nH]c2c1 (stereo not drawn) [MDI-251, 2-(6-(2-ethyl-5-fluoro-4-hydroxyphenyl)-1H-indazol-3-yl)-N-(tetrahydrofuran-3-yl)-4,6-dihydropyrrolo[3,4-d]imidazol-5(1H)-carboxamide]
- IC50 (TYK2): 1.33 nM
- IC50 (JAK1): 0.144 nM
- IC50 (JAK2): 0.818 nM
- IC50 (JAK3): 0.406 nM
